Results on 10 compounds are retold here after patent publication US20070251020A1, “Fungicidal compositions and methods of using the same” (priority 2006, published 2007).

Structures are written as SMILES.

Holding throughout (assay type): cell-based
In assay [1] the test system is Aspergillus niger. Put plainly: Wet blue pieces dipped in active substance, exposed to airborne spores in petri-dish growth chambers. Details: key to GROWTH Wk. 1 / GROWTH Wk. 2 / GROWTH Wk. 3 / GROWTH Wk. 4 / GROWTH Wk. 5 / GROWTH Wk. 6 / GROWTH Wk. 7: 0: no growth on surface; +: less than half of surface covered with mold; ++: about half of surface covered with mold; +++: about ¾ of surface covered with mold; ++++: the whole surface covered with mold. The note with it: for performance against Aspergillus niger on wet blue compared with the controls: wet blue dipped in 0.5% or 0.25% (by wt) mixtures. The procedure:
Sodium omadine was included among the substances tested, as a positive control. The test organism, Aspergillus niger, was grown on potato dextrose agar for 5-days in petri-dishes. The wet blue pieces were placed on top of pieces of bent glass rod, thereby preventing direct contact with the “lawn” of Aspergillus niger. Thus, exposure of the wet blue to Aspergillus niger was limited to airborne spores, simulating one of the most common modes of exposure experienced in practice. For each active substance and concentration studied, wet blue pieces were suspended both grain side up and flesh side up. A bottom half of a petri-dish was used as a cover to provide a growth chamber for each sample. These growth chambers were incubated at 25° C. and evaluated weekly to determine the degree of fungal infestation on the wet blue surfaces.

Assay [2] concerns Aspergillus niger. Put plainly: Screening for anti-fungal activity in mineral-salts glucose medium, visual growth / no growth. The arrangement: key: −: no growth; +: slight growth; ++: moderate growth; +++: heavy growth; ++++: very heavy growth. Particulars: 25° C. The procedure: The pH of the medium was adjusted to 6 with 1N NaOH. The medium was distributed in 50 ml amounts into 250 ml flasks and autoclaved at 121° C. for 20 minutes. The test fungus, Aspergillus niger, was grown on potato dextrose agar for 7-10 days. A spore/hyphal suspension of the fungus was prepared by washing down the spores/hyphae from the slant with sterile saline into a bottle containing 30 ml sterile saline and shaken. The chemicals were added to the sterile mineral-salts medium in the desired concentrations, and each flask was inoculated with a suspension of the fungal suspension to give a final fungal count of approximately 1×10^6 cfu/ml. The inoculated samples were incubated at 25° C. and inspected visually for growth or no growth at 7 and 14 days.

The subject of another assay is Penicillium sp. The assay can be described thus: Wet blue pieces dipped in active substance, mold exposure in petri-dishes, industrial isolate. Details: key to GROWTH Wk. 1 / GROWTH Wk. 2 / GROWTH Wk. 3 / GROWTH Wk. 4 / GROWTH Wk. 5 / GROWTH Wk. 7 / GROWTH Wk. 8 / GROWTH Wk. 9: 0: no growth on surface; +: less than half of surface covered with mold; ++: about half of surface covered with mold; +++: about ¾ of surface covered with mold; ++++: the whole surface covered with mold. The procedure: One inch square pieces of wet blue that had not been previously treated with fungicide were dipped in either 0.5% or 0.25% (by wt) mixtures of each active substance in water. Sodium omadine was included among the substances tested, as a positive control. The test organism, Aspergillus niger, was grown on potato dextrose agar for 5-days in petri-dishes. The wet blue pieces were placed on top of pieces of bent glass rod, thereby preventing direct contact with the “lawn” of Aspergillus niger. Thus, exposure of the wet blue to Aspergillus niger was limited to airborne spores, simulating one of the most common modes of exposure experienced in practice. For each active substance and concentration studied, wet blue pieces were suspended both grain side up and flesh side up. A bottom half of a petri-dish was used as a cover to provide a growth chamber for each sample. These growth chambers were incubated at 25° C. and evaluated weekly to determine the degree of fungal infestation on the wet blue surfaces.
Some of the minimum risk fungicides identified above were further tested against an industrial isolate of Penicillium sp, as shown in Table 3. This particular “wild strain” of Penicillium was isolated from commercial wet blue that was seriously contaminated with mold. […] Once again, one inch square pieces of wet blue were dipped in mixtures of active substances in water—this time at 1% and 0.5% concentrations. The mold exposure was carried out in petri-dishes as in EXAMPLE 2, but with Penicillium sp. as the test organism.

Regarding `CCC(=O)OCCc1ccccc1` [2-Phenylethyl propionate], in the assay with Aspergillus niger [1] (petri-dishes), the “performance against Aspergillus niger on wet blue compared with the controls” value (shortened to “performance … compared with the controls”) was “no better than the controls”. Also, in the assay with Aspergillus niger [2] (1% by wt.), the “GROWTH 7-days” value is “−” and the “GROWTH 14-days” value is recorded as “−”.
Take `CC(C)=CCC/C(C)=C/CO` [Geraniol]: the “performance … compared with the controls” value in the assay on Aspergillus niger [1] (petri-dishes) is “no better than the controls”. Also, in the assay on Aspergillus niger [2] (0.5% by wt.), the “GROWTH 7-days” value is given as “−” and the “GROWTH 14-days” value is “−”. Besides, in the assay on Aspergillus niger [2] (1% by wt.), the “GROWTH 7-days” value is reported as “−” and the “GROWTH 14-days” value was “−”.
`C/C=C/C=C/C(=O)[O-].[K+]` [Potassium sorbate]: the “GROWTH 7-days” value in the assay on Aspergillus niger [2] (0.5% by wt.) and in the assay on Aspergillus niger [2] (1% by wt.) was “−” throughout. Besides, the “GROWTH 14-days” value in the assay on Aspergillus niger [2] (0.5% by wt.) is recorded as “+++”; in the assay with Aspergillus niger [2] (1% by wt.), “−”.
For `CC(=O)c1c([O-])cc(C)oc1=O.[Na+]` [Sodium dehydroacetate, reference compound], in the assay with Aspergillus niger [2] (0.5% by wt.), the “GROWTH 7-days” value was “−” and the “GROWTH 14-days” value is recorded as “−”. For the same compound, in the assay with Aspergillus niger [2] (1% by wt.), the “GROWTH 7-days” value is “−” and the “GROWTH 14-days” value is reported as “−”.
On to `C=CCc1ccc(O)c(OC)c1` [Eugenol], for which the “performance … compared with the controls” value with Aspergillus niger [1] (petri-dishes) is on record as “no better than the controls”. Further, in the assay with Aspergillus niger [2] (0.5% by wt.), the “GROWTH 7-days” value is reported as “−” and the “GROWTH 14-days” value is reported as “−”. For the same compound, in the assay on Aspergillus niger [2] (1% by wt.), the “GROWTH 7-days” value is “−” and the “GROWTH 14-days” value was “−”.
For the compound `CCCCCCCCCCCCOS(=O)(=O)[O-].[Na+]` [Sodium lauryl sulfate], in the assay on Penicillium sp. (0.5% (flesh)), the “GROWTH Wk. 1” value is recorded as 0, the “GROWTH Wk. 2” value turned out to be 0, the “GROWTH Wk. 3” value is reported as 0 and the “GROWTH Wk. 4” value is “+”. In the assay on Penicillium sp. (0.5% (flesh)), the “GROWTH Wk. 5” value is given as “++”, the “GROWTH Wk. 7” value is on record as “++++”, the “GROWTH Wk. 8” value is “++++” and the “GROWTH Wk. 9” value is reported as “++++”. Besides, in the assay on Penicillium sp. (0.5% (grain)), the “GROWTH Wk. 1” value was 0, the “GROWTH Wk. 2” value is 0, the “GROWTH Wk. 3” value is reported as “+” and the “GROWTH Wk. 4” value is recorded as “++++”. In the assay with Penicillium sp. (0.5% (grain)), the “GROWTH Wk. 5” value is listed as “++++”, the “GROWTH Wk. 7” value was “++++”, the “GROWTH Wk. 8” value is reported as “++++” and the “GROWTH Wk. 9” value is given as “++++”. In the assay with Penicillium sp. (1% (flesh)), the “GROWTH Wk. 1” value is given as 0, the “GROWTH Wk. 2” value is 0, the “GROWTH Wk. 3” value came out at 0 and the “GROWTH Wk. 4” value is given as 0. Also, in the assay with Penicillium sp. (1% (flesh)), the “GROWTH Wk. 5” value is “+”, the “GROWTH Wk. 7” value was “++++”, the “GROWTH Wk. 8” value was “++++” and the “GROWTH Wk. 9” value was “++++”. Moreover, in the assay on Penicillium sp. (1% (grain)), the “GROWTH Wk. 1” value amounted to 0, the “GROWTH Wk. 2” value was 0, the “GROWTH Wk. 3” value is recorded as 0 and the “GROWTH Wk. 4” value stood at 0. Also, in the assay on Penicillium sp. (1% (grain)), the “GROWTH Wk. 5” value was determined as 0, the “GROWTH Wk. 7” value is on record as 0, the “GROWTH Wk. 8” value is listed as 0 and the “GROWTH Wk. 9” value turned out to be 0. For the same compound, in the assay with Penicillium sp. (wet blue dipped at 1% and 0.5%, Prosan 18 as positive control), the “resistance of treated wet blue compared with unprotected controls” value was “substantially improved over the unprotected controls”. In the assay with Aspergillus niger [1] (0.25% (flesh)), the “GROWTH Wk. 1” value came to 0, the “GROWTH Wk. 2” value amounted to 0, the “GROWTH Wk. 3” value is recorded as 0 and the “GROWTH Wk. 4” value is 0. Further, in the assay with Aspergillus niger [1] (0.25% (flesh)), the “GROWTH Wk. 5” value was 0, the “GROWTH Wk. 6” value amounted to 0 and the “GROWTH Wk. 7” value is reported as “++”. In the assay on Aspergillus niger [1] (0.25% (grain)), the “GROWTH Wk. 1” value came out at 0, the “GROWTH Wk. 2” value was 0, the “GROWTH Wk. 3” value came out at 0 and the “GROWTH Wk. 4” value turned out to be 0. Also, in the assay with Aspergillus niger [1] (0.25% (grain)), the “GROWTH Wk. 5” value stood at 0, the “GROWTH Wk. 6” value worked out at 0 and the “GROWTH Wk. 7” value was “++”. For the same compound, in the assay with Aspergillus niger [1] (0.5% (flesh)), the “GROWTH Wk. 1” value turned out to be 0, the “GROWTH Wk. 2” value is reported as 0, the “GROWTH Wk. 3” value amounted to 0 and the “GROWTH Wk. 4” value is 0. In the assay with Aspergillus niger [1] (0.5% (flesh)), the “GROWTH Wk. 5” value is given as 0, the “GROWTH Wk. 6” value came out at 0 and the “GROWTH Wk. 7” value is 0. Also, in the assay with Aspergillus niger [1] (0.5% (grain)), the “GROWTH Wk. 1” value is given as 0, the “GROWTH Wk. 2” value was found to be 0, the “GROWTH Wk. 3” value is recorded as 0 and the “GROWTH Wk. 4” value came out at 0. Moreover, in the assay on Aspergillus niger [1] (0.5% (grain)), the “GROWTH Wk. 5” value stood at 0, the “GROWTH Wk. 6” value was determined as 0 and the “GROWTH Wk. 7” value is “+”. In addition, the “duration of protection of wet blue” value in the assay on Aspergillus niger [1] (at the concentration tested, petri-dishes) is “six to seven”. In addition, in the assay on Aspergillus niger [2] (0.5% by wt.), the “GROWTH 7-days” value is “−” and the “GROWTH 14-days” value is “−”. Further, in the assay on Aspergillus niger [2] (1% by wt.), the “GROWTH 7-days” value is reported as “−” and the “GROWTH 14-days” value is “−”.
As to `O=C([O-])c1ccccc1.[Na+]` [Sodium benzoate], the “GROWTH 7-days” value in the assay with Aspergillus niger [2] (0.5% by wt.) is “++”; in the assay on Aspergillus niger [2] (1% by wt.), “+”.
For the compound `O=C(O)CC(O)(CC(=O)O)C(=O)O` [Citric acid], in the assay with Aspergillus niger [2] (0.5% by wt.), the “GROWTH 7-days” value was “−” and the “GROWTH 14-days” value is on record as “−”. Moreover, in the assay with Aspergillus niger [2] (1% by wt.), the “GROWTH 7-days” value was “−” and the “GROWTH 14-days” value is “−”.
Consider `[Na+].[O-][n+]1ccccc1[S-]` [Sodium omadine, reference compound], for which, in the assay with Aspergillus niger [1] (0.05% (flesh)), the “GROWTH Wk. 1” value is 0, the “GROWTH Wk. 2” value is recorded as 0, the “GROWTH Wk. 3” value is 0 and the “GROWTH Wk. 4” value came out at 0. Moreover, in the assay on Aspergillus niger [1] (0.05% (flesh)), the “GROWTH Wk. 5” value worked out at 0, the “GROWTH Wk. 6” value came to 0 and the “GROWTH Wk. 7” value is listed as 0. In the assay with Aspergillus niger [1] (0.05% (grain)), the “GROWTH Wk. 1” value worked out at 0, the “GROWTH Wk. 2” value is listed as 0, the “GROWTH Wk. 3” value was found to be 0 and the “GROWTH Wk. 4” value is reported as 0. For the same compound, in the assay on Aspergillus niger [1] (0.05% (grain)), the “GROWTH Wk. 5” value is given as 0, the “GROWTH Wk. 6” value came out at 0 and the “GROWTH Wk. 7” value worked out at 0.
For `O=C([O-])c1ccccc1O.[Na+]` [Sodium salicylate, reference compound], the “GROWTH 7-days” value in the assay with Aspergillus niger [2] (0.5% by wt.) and with Aspergillus niger [2] (1% by wt.) was “++++” each time.
